In this assay the test system is MM1.s. The assay can be described thus: MTT viability assay, MM1.s. The format is cell-based. The conditions noted are these: Homo sapiens, Multiple Myeloma, read-out: IC50 Avg ± s.d. (n = 3), MM1.s. The text has this: Cell Lines: PC-9 cell line used was obtained from Sigma Aldrich and grown in RPMI 1640 medium with 10% fetal bovine serum and 1% penicillin/streptomycin. HCC4006, U266, MM1.s, and Beas-2B cell lines were obtained from ATCC and cultured in either RPMI 1640 or DMEM with 10% fetal bovine serum and 1% penicillin/streptomycin. All cell lines were also checked for mycoplasma every six months and subjected to short tandem repeat (STR) analysis for cell line validation. CRISPR Cas9: CRISPR Guide RNA 2 targeting ERO1α and CRISPR Guide RNA 4 were purchased from Genscript in the pLentiCRISPR V2 plasmid containing puromycin/ampicillin selection marker. Lentivirus was made from HEK 293T cells by co-transfection with GuideRNA of interest, pVSVG, and pPAX2 plasmids. […] Plate was then read on the BioTek Cytation 5 at 530/590 nm. […] Plate was then read at 570 nm. Treated wells were all compared to DMSO control wells to calculate percent growth inhibition and the IC50 was calculated using GraphPad (log(inhibitor) vs growth inhibition). […] Images were then quantified using ImageJ. […] Cells were aliquoted at 1 million cells per PCR tube in PBS and heated in Bio-Rad T100 thermal cycler at indicated temperatures (RT, 46° C., 48° C., 50° C., 52° C., 54° C., 56°, 58° C., and 60° C.) for 3 minutes and aggregation temperature was determined by western blot analysis. […]

Structures are written as SMILES.

Results on one compound are retold here after patent publication US20250064773A1, “TARGETING ERO1 ALPHA WITH AURONE DERIVATIVES” (West Virginia University Board of Governors on behalf of …, priority 2021, published 2025).

Broadly, the IC50 is the midpoint of a concentration-inhibition curve. As for `CN(C)c1ccc(/C=C2\Oc3cc(O)ccc3C2=O)cc1` [Compound T151742], the 50% inhibitory concentration (IC50) is 7.45 ± 1.12 µM.
